Like-named read-outs stand apart in the source and are kept apart here.
Legend:
[1] = Ferric reducing antioxidant of potency (FRAP) assay; type: biochemical; details: Trolox equivalents; mean ± SE of three experiments
Description: The ferric reducing ability of each standard solution was measured according to a modified protocol described by Guihua et al.[26]. The reagent for analysis was freshly prepared by mixing the following solutions in the reported ratio 10/1/1 (v:v:v) (i) 0.1 M acetate buffer pH 3.6, (ii) TPTZ (2,4,6-Tri(2-pyridyl)-s-triazine) 10 mmol/L in 40 mmol/HCl, (iii) ferric chloride 20 mmol/L. To a 1.9 mL of reagent were added 0.1 mL of sample proper diluted or solvent when blank was performed. Readings at fixed wavelength of the absorption maximum (593 nm) were done after 30 min, using a UV-VIS spectrophotometer; it was evaluated the absorbance increase of sample solution against the absorbance of blank reaction as parameter to calculate the antioxidant activity. The antioxidant activity is given as Trolox activity since this standard was used to perform the calibration curves.

[2] = PCL antioxidant activity of finished formulations; type: biochemical; details: 3% (w/w) compound in O/W formulation
Description: (§1) PCL assay, based on the methodology of Popov and Lewin[23], was used to measure the antioxidant activity of synthesized compounds with a Photochem® apparatus (Analytik Jena, Leipzig, Germany) against superoxide anion radicals generated from luminol, a photosensitizer, when exposed to UV light (Double Bore® phosphor lamp, output 351 nm, 3 mWatt/cm^2). The antioxidant activity was measured using ACL (Antioxidant Capacity of Liposoluble substance) kit provided by the manufacturer designed to measure the antioxidant activity of lipophilic compounds[24]. […] The areas under the curves were calculated using the PCLsoft control and analysis software. […] This inhibition was used as a parameter for quantification and related to the decrease in the integral of PCL intensities caused by varying concentrations of Trolox. The observed inhibition of the signal was plotted against the concentration of Trolox added to the assay medium. The concentration of the added tested compounds was such that the generated luminescence during the 180-s sampling interval fell within the limits of the standard curve. The antioxidant assay was carried out in triplicate for each sample, and 20 μL of the diluted compound in HPLC-grade methanol (ACL) was sufficient to correspond to the standard curve.
It was decided to use a standard formulation oil in water (O/W).
In particular, molecules with phenolic hydroxyl in the ortho position on the phenyl ring (4, 5, 9, 10 and 13) had better and higher UVA/UVB ratio and critical wavelength, although they have the SPF value less than lead compound. Formulation containing products 2 and 14, which have a phenolic hydroxyl at the para position on the phenyl ring, have shown good values in terms of SPF, greater UVA protection factor, critical wavelength and also higher UVA/UVB ratio than PBSA, but yet lower than the molecules containing hydroxyl on the phenyl ring in ortho. […] Compound 8 has lower SPF than 3, but higher than PBSA; in comparison with 3, molecules 8 and 12 presented higher UVA/UVB ratio and critical wavelength. Regarding compounds with three hydroxyls on phenyl ring, they have good UVA filtering parameters, their critical wavelengths are the highest and SPF is higher than PBSA for molecule 6, while SPF of 15 is slightly lower and decreases further in molecule 11. Thus, it can be observed that parameters are mainly influenced by the number and position of the hydroxyl groups on the phenyl ring rather than the substituent in the 5-position of benzimidazole. Concomitantly, all formulations were analyzed to assess whether the antioxidant power was maintained. […] In Table 4, the antioxidant activity, measured by PCL method, of finished formulations is reported; as it can be seen results were in agreement with that obtained testing the pure compounds. […] Formulations containing compounds 3, 8 and 12 presented highest antioxidant capabilities; these are followed, but with important decrease in antioxidant capacity, by formulations with compounds 6, […] and 15 that have three hydroxyl moieties on phenyl ring.

[3] = UV spectra: λmax and molar extinction coefficient; type: physicochemical; details: for λ max: aqueous solution at pH 7; for ɛ (molar extinction coefficient): aqueous solution at pH 7, at λ max, linear regression Lambert–Beer
Description: Sun protection factor (SPF) is related to the UV absorption of the substances, so before including the molecules in cosmetic formulations we evaluated the wavelength of maximum absorption (λmax) and the molar extinction coefficient (ɛ) of each molecule in aqueous solution at pH 7. The UV spectra were recorded between 270 and 420 nm (20 nm higher and lower then UVA and UVB range) to verify the spectrum profile of the molecules within UVA and UVB region. UV spectrum of PBSA is an UVB filter and presents a λmax of 302 nm; after this peak, the absorbance fades going to higher wavelength until almost zero around 325 nm, and then, it provides no absorption in the UVA region. Molecules spectra overlapped for category according to the substituent in position 5 of the benzimidazole ring are shown in Figures 1, 2 and 3; PBSA spectrum is presented in all figures for comparison.
From the spectra appears that the lambda maxima (Table 2) of the new molecules shifted toward higher wavelength and in general the range of absorption curve was wider than PBSA. Within a group of molecules, the batochromic shift was more marked for the molecules that have a hydroxyl moiety in position 2 of the phenyl ring (4, 5, 6, 9, 10, 11, 13 and […]); the effect of ortho substituted is known to produce this shift toward higher wavelength. Increasing the number of auxochrome groups on phenyl ring an increment in the absorption range occurred, compounds with three hydroxyl on the phenyl ring (6, 11, 15) had the broadest spectrum and their lambda maxima shifted at the highest wavelength compared to the other compounds. The absorption spectrum of molecules with the same number and position of hydroxyl seemed only slightly influenced by the substituent in position 5 of the benzimidazole ring. After having established the lambda maxima for every compound, solutions at different concentrations were prepared to calculate the molar extinction coefficient by means of linear regression and applying Lambert–Beer equation (Table 2).

NCTC-2544 cells = assay: Phototoxicity / cellular photoprotection, UVA or UVB irradiation, MTT test; details: for viability at 50 µM / viability at 20 µM: Homo sapiens, NCTC-2544, light or radiation study, 48 h; for cell survival in relation to the irradiated control: after UVB irradiation 1 J/cm^2
Description: (§2) An immortalized, nontumorigenic cell line of human keratinocytes (NCTC-2544) was grown in a DMEM medium (Sigma-Aldrich Milan, Italy), supplemented with 115 units/mL of penicillin G, 115 μg/mL streptomycin, and 10% fetal calf serum (Invitrogen, Milan, Italy). Individual wells of a 96-well tissue culture microtiter plates (Falcon, Becton–Dickinson) were inoculated with 100 μL of complete medium containing 5 × 10^3 NCTC-2544. The plates were incubated at 37 °C in a humidified (5% CO2) incubator for 18 h prior to the experiments.
Two HPW 125 Philips lamps, mainly emitting at 365 nm, were used for UVA irradiation experiments. The spectral irradiance of the source was 4.0 mWcm^−^2 as measured at the sample level by a Cole-Parmer Instrument Company radiometer (Niles, IL) equipped with a 365-CX sensor. One or two PL-S 9 W/12 Philips lamps (280–370 nm; peak at 315 nm) were used for UVB irradiation experiments. To restrict the incident radiation to the range 305–370 nm, a glass filter (Schott SWG-305) was used. Total energy was detected by the same equipped with a sensor (model CX-312).
After medium removal, 100 μL of the drug solution, dissolved in DMSO and diluted with Hank’s Balanced Salt Solution (HBSS pH =7.2), was added to each well, incubated at 37 °C for 30 min, and then irradiated (20 J/cm^2 for UVA and 0.5 and 1 J/cm^2 for UVB). After irradiation, the solution was replaced with the medium and the plates were further incubated for 48 h. Cell viability was assayed by the MTT [(3–(4,5-dimethylthiazol-2-yl)-2,5 diphenyl tetrazolium bromide)] test as previously described by Mosmann[27].
Molecules were verified for their photocytotoxicity in the same cell line; the cells were treated with 50 μM solutions of compound and after 30 min were irradiated with 20 J/cm^2 UVA or with UVB at two energy amounts: 0.5 J/cm^2 and 1 J/cm^2 UVB. […] After irradiation, the solution was replaced with growth medium and the cells were further incubated for 48 h, and then, cell viability was assessed by MTT assay. […] The phototoxicity of tested molecules was compared with the ratio of cell survival of irradiated keratinocytes without substance (IC = irradiated control).

[4] = Cytotoxicity, MTT test, 72 h; details: human, NCTC-2544 keratinocytes (immortalized, nontumorigenic)
Description: as §2
After medium removal, 100 μL of the drug solution, dissolved in DMSO and diluted in DMEM medium, was added to each well, incubated at 37 °C for 72 h. Final DMSO concentration never exceeded 0.5%. Cell viability was assayed by the MTT (3–(4,5-dimethylthiazol-2-yl)-2,5 diphenyl tetrazolium bromide) test as previously described by Mosmann[27].
The tests were conducted using a specific cell line of human keratinocytes (NCTC-2544). To assess cell viability, in the presence of the study compounds, before and after the irradiation, the MTT assay was performed[27]. The cytotoxicity was checked after 72 h from the incubation of the keratinocytes with compounds; moreover, the same experiments were performed in the presence of the parent PBSA.

[5] = Photochemiluminescence (PCL) method, ACL kit; type: biochemical; details: pure compound; Trolox equivalents; mean ± SE of three experiments
Description: as §1

[6] = 1,1-Diphenyl-2-picryl-hydrazyl radical (DPPH) assay; type: biochemical; details: Trolox equivalents; mean ± SE of three experiments
Description: To 1.5 mL DPPH methanolic solution (0.5 mM) was added 0.750 mL of sample solution proper diluted. Samples absorbance measurements were evaluated with a UV-VIS spectrophotometer (Thermo Spectronic Helios γ, Cambridge, UK) at fixed wavelength of 517 nm. Blank sample was prepared adding methanol to DPPH solution and Trolox was used as standard reference to achieve a calibration curve. The radical-scavenging activity is expressed as inhibition ratio of initial concentration of DPPH radical and is calculated according to the formula: Inhibition percentage (Ip) = [(AB-As)/AB]·100; where AB and As are, respectively, the absorbance values of blank reaction and of the tested sample[25].

[7] = read-out: % Cell survival UVA 20 J/cm^2
[8] = read-out: % Cell survival UVB 0.5 J/cm^2
[9] = read-out: % Cell survival UVB 1 J/cm^2

In the case of `O=S(=O)(O)c1ccc2[nH]c(-c3ccc(O)c(O)c3)nc2c1` [Compound 3, 2-(3,4-Dihydroxy-phenyl)-1H-benzimidazole-5-sulfonic acid], the FRAP [1] is reported as 2707.29 ± 29.52 μmolTrolox/mmol, the “PCL of finished formulation” value [2] is reported as 2212.09 ± 68.35 μmol Trolox/g formulation and the λ max [3] is reported as 313 nm. For the same molecule, the “ɛ (molar extinction coefficient)” value [3] was 23 000, the viability at 50 µM (NCTC-2544 cells; [7]) was 77.4 ± 4% and the viability at 50 µM (NCTC-2544 cells; [8]) was 71.5 ± 2.5%. For the same molecule, the viability at 50 µM (NCTC-2544 cells; [9]) was 58.1 ± 2.6%, the “cell survival in relation to the irradiated control” value (NCTC-2544 cells) was “doubled” and the IC50 at 72 h [4] was greater than 50 µM. The PCL [5] was 22,838 ± 836,26 μmolTrolox/mmol and the DPPH [6] was 2145.31 ± 45.8 μmolTrolox/mmol.
With `Oc1ccc(-c2nc3ccccc3[nH]2)cc1O` [Compound 8, 2-(3,4-Dihydroxy-phenyl)-1H-benzimidazole] the FRAP [1] was 2663.21 ± 32.53 μmolTrolox/mmol, the “PCL of finished formulation” value [2] was 2972.107 ± 145.63 μmol Trolox/g formulation and the λ max [3] was 311 nm. For the same molecule, the “ɛ (molar extinction coefficient)” value [3] was 16 000, the viability at 50 µM (NCTC-2544 cells; [7]) was 62.9 ± 4.3% and the viability at 50 µM (NCTC-2544 cells; [8]) was 72.8 ± 1%. The viability at 50 µM (NCTC-2544 cells; [9]) was 43.9 ± 3.4%, the IC50 at 72 h [4] was greater than 50 µM and the PCL [5] was 19190.6 ± 443.18 μmolTrolox/mmol. For the same molecule, the DPPH [6] was 1974.58 ± 16.89 μmolTrolox/mmol.
With `O=C(O)c1ccc2[nH]c(-c3ccc(O)c(O)c3)nc2c1` [Compound 12, 2-(3,4-Dihydroxy-phenyl)-1H-benzimidazole-5-carboxylic acid] the FRAP [1] was 2433.28 ± 21.74 μmolTrolox/mmol, the “PCL of finished formulation” value [2] was 1373.39 ± 19.43 μmol Trolox/g formulation and the λ max [3] was 317 nm. For the same molecule, the “ɛ (molar extinction coefficient)” value [3] was 21 000, the viability at 50 µM (NCTC-2544 cells; [7]) was 74.3 ± 2% and the viability at 50 µM (NCTC-2544 cells; [8]) was 76.3 ± 3.6%. The viability at 50 µM (NCTC-2544 cells; [9]) was 64.5 ± 3.5%, the “cell survival in relation to the irradiated control” value (NCTC-2544 cells) was “doubled” and the IC50 at 72 h [4] was greater than 50 µM. For the same molecule, the PCL [5] was 13174.31 ± 240.68 μmolTrolox/mmol and the DPPH [6] was 1771.82 ± 84.75 μmolTrolox/mmol.
For `O=S(=O)(O)c1ccc2[nH]c(-c3ccc(O)cc3O)nc2c1` [Compound 5, 2-(2,4-Dihydroxy-phenyl)-1H-benzimidazole-5-sulfonic acid], the FRAP [1] was 19.87 ± 0.22 μmolTrolox/mmol, the “PCL of finished formulation” value [2] was 0.95 ± 0.02 μmol Trolox/g formulation and the λ max [3] was 318 nm. The “ɛ (molar extinction coefficient)” value [3] was 23 000, the viability at 50 µM (NCTC-2544 cells; [7]) was 79 ± 6% and the viability at 50 µM (NCTC-2544 cells; [8]) was 70.8 ± 3.9%. The viability at 50 µM (NCTC-2544 cells; [9]) was 38.6 ± 3.7%, the IC50 at 72 h [4] was greater than 50 µM and the PCL [5] was 159.1 ± 4.3 μmolTrolox/mmol. It also gave a DPPH [6] of 21.41 ± 043 μmolTrolox/mmol.
For `O=S(=O)(O)c1ccc2[nH]c(-c3ccc(O)cc3)nc2c1` [Compound 2, 2-(4-Hydroxy-phenyl)-1H-benzimidazole-5-sulfonic acid], the FRAP [1] was 12.23 ± 0.25 μmolTrolox/mmol, the “PCL of finished formulation” value [2] was 0.33 ± 0.03 μmol Trolox/g formulation and the λ max [3] was 308 nm. The “ɛ (molar extinction coefficient)” value [3] was 25 000, the viability at 20 µM (NCTC-2544 cells; [7]) was 77.3 ± 2.8% and the viability at 20 µM (NCTC-2544 cells; [8]) was 78 ± 3.5%. The viability at 20 µM (NCTC-2544 cells; [9]) was 46.7 ± 3.4%, the IC50 at 72 h [4] was 26.4 ± 2.7 µM and the PCL [5] was 11.36 ± 0.08 μmolTrolox/mmol. The DPPH [6] was 2.04 ± 0.15 μmolTrolox/mmol.

— publication PMC6010047, “Design, synthesis and biological evaluation of novel hydroxy-phenyl-1H-benzimidazoles as radical scavengers and UV-protective agents” (Journal of Enzyme Inhibition and Medicinal Chemistry, 2017)
